Data reported in patent publication US20250140406A1, “CLASSIFYING TUMORS AND PREDICTING RESPONSIVENESS” (Oncocyte Corporation, priority 2022, published 2025).
Like-named read-outs stand apart in the source and are kept apart here.

Legend:
[1] = tested on: cancer cell lines classified IM, MSL, M; test: PRISM screen compound sensitivity correlated with IM, MSL and M subtype of cell lines (101 gene signature); type: cell-based
[2] = tested on: cancer cell lines, DetermaIO classes; test: Association of PRISM compound sensitivity with DetermaIO (DTIO) cell line classes; type: cell-based
[3] = correlation of PRISM compound sensitivity with IM subtype correlation; test cell set (188 cell lines)
[4] = correlation of PRISM compound sensitivity with M subtype correlation; test cell set (188 cell lines)
[5] = correlation of PRISM compound sensitivity with MSL subtype correlation; test cell set (188 cell lines)
[6] = correlation of PRISM compound sensitivity with DTIO, test cell set
[7] = correlation of PRISM compound sensitivity with DTIO, training cell set
[8] = correlation of PRISM compound sensitivity with IM subtype correlation; test cell set
[9] = correlation of PRISM compound sensitivity with M subtype correlation; test cell set
[10] = correlation of PRISM compound sensitivity with MSL subtype correlation; test cell set
[11] = subtype (IM, MSL or M) with which PRISM compound sensitivity is negatively correlated; training cell set, 101 gene signature
[12] = correlation of PRISM compound sensitivity with DTIO, test cell set (188 cell lines)
[13] = correlation of PRISM compound sensitivity with DTIO, training cell set (371 cell lines)
[14] = correlation of PRISM compound sensitivity with DTIO (DetermaIO), test cell set (188 cell lines)
[15] = correlation of PRISM compound sensitivity with DTIO (DetermaIO), training cell set (371 cell lines)
[16] = subtype (IM, MSL or M) assigned to the compound by negative correlation of PRISM sensitivity with subtype; training cell set (371 cell lines), 101 gene signature

SMILES	IM Corr test [1, 3]	M Corr test [1, 4]	MSL Corr test [1, 5]	DTIO Corr test [2, 6]	DTIO Corr train [2, 7]	IM Corr test [1, 8]	M Corr test [1, 9]	MSL Corr test [1, 10]	other results
CC1(C)[C@@H](O[C@H]2O[C@H](C(=O)O)[C@@H](O)[C@H](O)[C@H]2O[C@@H]2O[C@H](C(=O)O)[C@@H](O)[C@H](O)[C@H]2O)CC[C@]2(C)[C@H]3C(=O)C=C4[C@@H]5C[C@@](C)(C(=O)O)CC[C@]5(C)CC[C@@]4(C)[C@]3(C)CC[C@@H]12 [ammonium-glycyrrhizinate]	−0.02605	0.0501	0.0971	−0.07896	−0.06692				
CO/N=C(\C(=O)N[C@@H]1C(=O)N2C(C(=O)OCOC(=O)C(C)(C)C)=C(C)CS[C@H]12)c1csc(N)n1 [cefetamet-pivoxil]				−0.06679	−0.1217	−0.01246	0.001642	−0.041	
O=C(O)/C=C1\CCCc2ccccc2C1O (centres unmarked) [NCS-382]	−0.09394	0.1059	0.05928	−0.1705	−0.1343				
CC(C)=CCC[C@](C)(O)[C@H]1CC[C@]2(C)[C@@H]1[C@H](O)C[C@@H]1[C@@]3(C)CC[C@H](O[C@@H]4O[C@H](CO)[C@@H](O)[C@H](O)[C@H]4O[C@@H]4O[C@H](CO)[C@@H](O)[C@H](O)[C@H]4O)C(C)(C)[C@@H]3CC[C@]12C [ginsenoside-rg3]	0.007852	−0.05841	−0.02955	−0.00056	0.0566				
Nc1cc(F)ccc1NC(=O)/C=C/c1cnn(C/C=C/c2ccccc2)c1 [K61688984]									TNBCType train ([1]; classification of association of compound sensitivity with IM, MSL and M cell line classes; training data set): MSL; DTIO Corr test ([2]; association of compound sensitivity with DetermaIO classes, test data set): −0.02541; DTIO Corr train ([2]; association of compound sensitivity with DetermaIO classes, training data set): 0.06912
COc1cc(C(=O)c2c(C)oc3c(O)c(OC)ccc23)cc(OC)c1OC [BNC105]				−0.1135	−0.1119	−0.07446	−0.08585	−0.09188	TNBCType train [1, 11]: MSL
Cc1cccc(NC(=O)N[C@@H]2N=C(c3ccccc3)c3ccccc3N(CC(=O)c3ccccc3C)C2=O)c1 [YM022]	−0.00497	−0.05702	−0.08788	−0.00858	0.03884				
COc1ccc(Nc2nccc(NCCO)n2)cc1 [cardiogenol-c]	−0.05174	−0.01984	−0.00925						TNBCType train ([1]; subtype (IM, MSL or M) the PRISM compound sensitivity is associated with; training cell set (371 cell lines); 101 gene signature): MSL; DTIO Corr test [2, 12]: −0.07629; DTIO Corr train [2, 13]: 0.01043
CCCCC/C=C\C=C\CCCCCCCCC(=O)O				−0.07628	−0.1009	−0.1138	0.05243	0.00293	
Cc1cc(C)cc(C(=O)N(C)[C@H](Cc2ccc(-c3ccccc3)cc2)C(=O)N[C@@H](Cc2c[nH]c3ccccc23)C(=O)O)c1 [IRL-2500]	−0.01191	0.007861	−0.1214						DTIO Corr test [2, 12]: 0.02691; DTIO Corr train [2, 13]: −0.06473
Cc1cc(Nc2nc(N[C@@H](C)c3ccc(F)cc3)c(C#N)cc2F)n[nH]1 [AZ960]	−0.0625	0.008122	0.05509						DTIO Corr test [2, 14]: −0.07766; DTIO Corr train [2, 15]: −0.135
COC(=O)CC[C@@H]1N=C(c2ccccn2)c2cc(Br)ccc2-n2c(C)cnc21 [remimazolam]	0.03785	−0.0431	−0.1059						TNBCType train [1, 16]: MSL; DTIO Corr test [2, 14]: −0.03395; DTIO Corr train [2, 15]: −0.02892
O=C(Nc1ccc(C(F)(F)F)cn1)N1CCN(c2ncccc2C(F)(F)F)CC1 [JNJ-17203212]				−0.00666	−0.1037	−0.03139	0.03655	0.142	
C[C@@H](Oc1ccc2[nH]nc(/C=C/c3cnn(CCO)c3)c2c1)c1c(Cl)cncc1Cl [LY2874455]	−0.01933	−0.0758	−0.1021	−0.0838	−0.1449				
O=C(NCc1cccc(O)c1)Nc1nc(-c2ccncc2)cs1 [RKI-1447]	0.09379	−0.1921	−0.2082	0.08122	0.04633				TNBCType train ([1]; subtype (IM, MSL or M) with which compound sensitivity is negatively correlated; training cell set (371 cell lines), 101 gene signature): MSL; TNBCType test ([1]; subtype (IM, MSL, M) with which compound sensitivity correlates, test set): MSL; TNBCType train ([1]; subtype (IM, MSL, M) with which compound sensitivity correlates, training set): MSL; TNBCType test ([1]; subtype (IM, MSL, M) with which compound sensitivity correlates; test set): MSL; TNBCType train ([1]; subtype (IM, MSL, M) with which compound sensitivity correlates; training set): MSL; DTIO Corr test ([2]; correlation of compound sensitivity with DTIO, test set): 0.08122; DTIO Corr train ([2]; correlation of compound sensitivity with DTIO, training set): 0.04633; DTIO Corr test ([2]; correlation of compound sensitivity with DetermaIO (DTIO), test set): 0.08122; DTIO Corr train ([2]; correlation of compound sensitivity with DetermaIO (DTIO), training set): 0.04633
CCN=C1N[C@@H]2[C@@H](O)[C@H](O)[C@@H](CO)O[C@@H]2S1 [thiamet-g]				0.003014	0.08206	−0.00247	−0.01394	−0.01406	TNBCType train [1, 11]: MSL
CCN(CC)C(=S)[S-].O.O.O.[Na+] [ditiocarb-sodium-trihydrate]				−0.1096	−0.01519	−0.07988	0.03103	−0.01951	TNBCType train [1, 11]: MSL
O=C1/C(=C/c2ccccc2)C[C@@]2(O)[C@H]3Cc4ccc(O)c5c4[C@@]2(CCN3CC2CC2)[C@H]1O5 [BNTX]	−0.1371	0.09323	0.1062	−0.1085	−0.1416				
CCN(CC)CCCCN1c2ccccc2Oc2ccc(Cl)cc21 [10-DEBC]	−0.00116	−0.0627	−0.03074						DTIO Corr test [2, 14]: −0.02503; DTIO Corr train [2, 15]: −0.1109
COc1cc(/C=C/c2ccc(O)cc2)cc(OC)c1 [pterostilbene]									IM Corr test [1]: −0.08513; M Corr test [1]: 0.06063; MSL Corr test [1]: −0.05713; DTIO Corr test [2]: −0.06647; DTIO Corr train [2]: −0.0588
O=C(O)C1CN(CCCP(=O)(O)O)CCN1 (centres unmarked) [CPP]	−0.04467	−0.01154	−0.2411						TNBCType train [1, 16]: MSL; DTIO Corr test [2, 14]: −0.04842; DTIO Corr train [2, 15]: −0.04563
C=C1CC[C@H](O)C/C1=C/C=C1\CCC[C@]2(C)[C@@H]([C@H](C)CC[C@@H](O)C(C)(C)O)CC[C@@H]12 [secalciferol]	−0.1254	0.07866	−0.05502	−0.09515	−0.06151				
COc1cc2nccc(Oc3ccc(NC(=O)Nc4ccc(F)cc4F)c(F)c3)c2cc1OC [KI-8751]				0.03732	0.02512	0.1039	−0.09761	0.006054	
